For six compounds, Solubility in water results are on record in patent publication US10913871B2, “Ink composition, method for producing the same, and image-forming method” (FUJIFILM CORPORATION, priority 2017, dated 2021).

This data set in a line: Solubility in water of specified hydrophobic compound or comparative compound. Format: physicochemical. The note with it: water at 25° C. The method, then:
Specifically, a Erlenmeyer flask is charged with 20 g of the test substance and 80 g of water, and shaken at 25° C. for 24 hours. The resultant solution is filtered through a 5 μm membrane filter, to obtain filtrate. The obtained filtrate (5 g) is evaporated to dryness at 100° C. for 3 hours. From the mass of the residual, the content (mass %) of the test substance dissolved in the filtrate relative to the total amount of the filtrate is calculated. The calculated content (mass %) is defined as the solubility in water of the test substance.
Specifically, an Erlenmeyer flask is charged with 100 g of water; while the internal temperature is maintained at 25° C., the test substance is gradually dropped. The dropping is ended when visual observation finds cloudiness in the liquid within the Erlenmeyer flask. The mass (mass %) of the test substance dropped until the end of the dropping relative to the total mass of the liquid within the Erlenmeyer flask is defined as the solubility in water of the test substance.

The structures appear in SMILES notation.

`CCCCCCCCCCC(CO)CCCCCCCC` (stereo not drawn) [2-Octyldodecanol] returned a Solubility in water below 1 mass %.
The compound `CCCCCCCCCCCCCCCCCC(=O)OC` [EXCEPARL MS] yielded a Solubility in water below 1 mass %.
`CCCCCCCCCCCCCCCCCCCCCCO` [Example 1-Docosanol, 1-Docosanol] registered a Solubility in water below 1 mass %.
Turning to `CCCCCCCCCCCCCCCCCCCCO` [Example 1-Eicosanol, 1-Eicosanol], the Solubility in water is below 1 mass %.
The compound `CCCCCCCCO` [Example 1-Octanol, 1-Octanol] came in with a Solubility in water below 1 mass %.
Compound `CCCCCCCCCCCCCCCCCCO` [Stearyl alcohol] displayed a Solubility in water below 1 mass %.
